Results as given in the supplement of paper PMC5908809.

Columns and labels:
[1] = test system: DERL-7 (IL-2 2.5 ng/mL); experiment: percent inhibition of viability; higher = more inhibition; conditions: 72 h
[2] = test system: normal primary NK cells, pool 2 (3 donors) (IL-2 2.5 ng/mL); experiment: as above; conditions: 72 h
[3] = test system: normal primary NK cells, pool 1 (3 donors) (IL-2 2.5 ng/mL); experiment: as above; conditions: 72 h
[4] = test system: KAI3 (IL-2 2.5 ng/mL); experiment: as above; conditions: 72 h
[5] = test system: NK-YS (IL-2 2.5 ng/mL); experiment: as above; conditions: 72 h
[6] = test system: IMC-1 (IL-2 20 ng/mL); experiment: as above; conditions: 72 h
[7] = test system: SNK-6 (IL-2 2.5 ng/mL); experiment: as above; conditions: 72 h
[8] = test system: normal primary NK cells, pool 1 (3 donors), resting (IL-2 0 ng/mL); experiment: as above; conditions: 72 h
[9] = test system: NK-92 (IL-2 2.5 ng/mL); experiment: as above; conditions: 72 h
[10] = test system: normal primary NK cells, pool 3 (3 donors) (IL-2 2.5 ng/mL); experiment: as above; conditions: 72 h
[11] = test system: KHYG-1 (IL-2 2.5 ng/mL); experiment: as above; conditions: 72 h
[12] = test system: NKL (IL-2 2.5 ng/mL); experiment: as above; conditions: 72 h
[13] = test system: YT (IL-2 2.5 ng/mL); experiment: as above; conditions: 72 h
[14] = test system: normal NK cells expanded with K562-aAPC; experiment: drug sensitivity score (DSS) (DSS units); higher = more sensitive; extreme values may be limits of the assay; conditions: 72 h; IL-2 2.5 ng/mL
Protocol: (§1)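 Drug sensitivity and resistance testing on K562-aAPC-expanded normal NK cells: 5 concentrations (10-fold steps over a 10,000-fold range), 72 h at 37 °C, viability by CellTiter-Glo normalised to DMSO and benzethonium chloride controls; DSS from the fitted curve.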

[15] = test system: normal NK cells expanded with K562-aAPC; experiment: percent inhibition of viability; higher = more inhibition; conditions: 72 h, IL-2 2.5 ng/mL
Protocol: as §1

[16] = test system: DERL-7 (IL-2 2.5 ng/mL); experiment: drug sensitivity score (DSS) (DSS units); higher = more sensitive; extreme values may be limits of the assay; conditions: 72 h
[17] = test system: normal primary NK cells, pool 2 (3 donors) (IL-2 2.5 ng/mL); experiment: as above; conditions: 72 h
[18] = test system: normal primary NK cells, pool 1 (3 donors) (IL-2 2.5 ng/mL); experiment: as above; conditions: 72 h
[19] = test system: KAI3 (IL-2 2.5 ng/mL); experiment: as above; conditions: 72 h
[20] = test system: NK-YS (IL-2 2.5 ng/mL); experiment: as above; conditions: 72 h
[21] = test system: IMC-1 (IL-2 20 ng/mL); experiment: as above; conditions: 72 h
[22] = test system: SNK-6 (IL-2 2.5 ng/mL); experiment: as above; conditions: 72 h
[23] = test system: normal primary NK cells, pool 1 (3 donors), resting (IL-2 0 ng/mL); experiment: as above; conditions: 72 h
[24] = test system: NK-92 (IL-2 2.5 ng/mL); experiment: as above; conditions: 72 h
[25] = test system: normal primary NK cells, pool 3 (3 donors) (IL-2 2.5 ng/mL); experiment: as above; conditions: 72 h
[26] = test system: KHYG-1 (IL-2 2.5 ng/mL); experiment: as above; conditions: 72 h
[27] = test system: NKL (IL-2 2.5 ng/mL); experiment: as above; conditions: 72 h
[28] = test system: YT (IL-2 2.5 ng/mL); experiment: as above; conditions: 72 h

CCC1=C[C@@H]2CN(C1)Cc1c([nH]c3ccccc13)[C@@](C(=O)OC)(c1cc3c(cc1OC)N(C)[C@H]1[C@@](O)(C(=O)OC)[C@H](OC(C)=O)[C@]4(CC)C=CCN5CC[C@]31[C@@H]54)C2 [Vinorelbine] (max concentration tested 10000 nM)
percent inhibition of viability [%]
Conditions	1 nM	10 nM	100 nM	1000 nM	10000 nM
[1]	-3.93	85.2	98.5	98.5	100
[2]	-13.5	0.55	18.7	12.3	39.7
[3]	-4.33	-2.37	-0.15	4.78	40.3
[4]	-0.08	44.9	58.9	70.4	70.2
[5]	10.7	66.4	64.9	84.2	90
[6]	-0.83	99.3	99.7	100	101
[7]	22.5	78.3	84.4	96.7	96.5
[8]	-1.44	-3.84	-0.59	21.5	76.9
[9]	-12.5	23.4	88.8	98.5	102
[10]	-16.2	-7.94	14.5	19.8	32.1
[11]	2.76	57.8	97.2	103	105
[12]	3.63	84.8	93.6	93.9	93.2
[13]	0.44	65.8	95.2	98.7	100
[15]	1.8	11.8	57.4	59.7	79

Conditions	drug sensitivity score
[14]	20.7
[16]	40.4
[17]	3.94
[18]	2.8
[19]	27.1
[20]	33.5
[21]	42.8
[22]	40.6
[23]	7.49
[24]	31.6
[25]	4.42
[26]	37.3
[27]	39.5
[28]	38.2
